Results from patent US5110797A, “Peptide compound and a pharmaceutically acceptable salt thereof” (Nippon Zoki Pharmaceutical Co., Ltd., priority 1985, dated 1992).

Columns and labels:
ddY-strain male mice = test: Analgesic effect, modified Randall-Selitto's test (Tale pressure method); format: in vivo; details: 0.1 μmole/mouse, intracisternal injection, test at 5 min after injection, groups of 10 mice; control 1.17 ± 0.12
Experimental: Groups of 10 ddY-strain male mice weighing 24-30 g were used for measurement of analgesic effect of the peptide compounds of the present invention by modified Randall-Selitto's test (Tale pressure method). Analgesic test was performed at 5 min after intracisternal injection of the test drugs.

[1] = test system: Wistar-strain rats (hippocampus EEG); test: Neurotropic effect: EEG activity after injection into the hippocampus of freely moving rats; format: in vivo, rat; details: 100 ng to 10 μg in 2 μl saline injected unilaterally into the hippocampus
Experimental: (I) A neurotropic effect of the peptide compounds of the present invention was examined by the method of Maria-S. Oitzl and J. P. Huston [Brain research, 308, 33-42 (1984)].
Wistar-strain rats were implanted with a set of electrodes for recording EEG under anesthesia with pentobarbital (50 mg/kg, i.p.). The electrodes were bilaterally implanted into the hippocampus (Bregma -2.7 mm, Lateral 2.5 mm, Depth 2.8 mm) by reference to THE RAT BRAIN IN STEREOTAXIC COODINATES (George Paxion & Charles Watson, Academic press). Chemitorode, a injection guide cannula uniting with electrode for recording, was implanted in the temporoparietal left hole. The test drugs were unilaterally injected into the hippocampus of freely moving rats to examine their effect on EEG activity.
The rats were kept for about a week for a cure, and then used for the experiments. After the EEG activity was recorded for dozens of minutes in a normal state, 100 ng to 10 μg of the test drug dissolved in 2 μl of saline was injected into the hippocampus through the injection guide cannula. Only saline was used as a control. Immediately after the administration it began to record the EEG activity.

NCCCC(=O)O [GABA, γ-Aminobutyric acid]
Pain Index (ddY-strain male mice): 1.65 ± 0.13 | time after administration at which characteristic EEG spikes appeared [1]: a few minutes | time after administration until which the EEG spikes continued [1]: about 25 min
